Measured values: patent US8735632B2, “Compounds” (DSM IP Assets B.V., priority 2009, dated 2014)

How the values were obtained:
Assay type in all cases: physicochemical
[1] = Reduction of solvent necessary to dissolve solid UV-filter; settings: for reduction of the cosmetic solvent necessary to dissolve BMDBM: with PG-UVB 1:1
[2] = Solubility in C12-15 alkyl benzoate: saturation of the solvent, content in the supernatant by HPLC; settings: pure cosmetic solvent
[3] = Solubility of BMDBM/BEMT in 1:1 (w/w) mixture C12-15 alkyl benzoate/PG-UVB, stored 1 month at RT, no re-crystallization
[4] = C12-15 alkyl benzoate/PG-UVB 1:1 versus C12-15 alkyl benzoate

reduction of the cosmetic solvent necessary to dissolve BMDBM ([1]; C12-15 alkyl benzoate)	reduction of the cosmetic solvent necessary to dissolve BMDBM ([1]; diisopropyl sebacate)	amount of 1:1 (w/w) mixture of PG-UVB and C12-15 alkyl benzoate necessary to dissolve 0.5 g BMDBM ([1]; with PG-UVB of example 1)	amount of 1:1 (w/w) mixture of PG-UVB and diisopropyl sebacate needed to dissolve 0.5 g BMDBM ([1]; with PG-UVB of example 1)	Solubility in C12-15 alkyl benzoate [2]	Δ solubility related to cosmetic solvent ([3]; C12-15 alkyl benzoate/PG-UVB 1:1)	Increase of solubility BMDBM/BEMT [3, 4]	Δ solubility [3, 4]	Molecule
75%	65%	1.5 g	1.4 g	–	–	–	–	butyl methoxydibenzoylmethane [BMDBM]
–	–	–	–	13 wt.-%	+13.5 wt.-%	+54%	+7 wt.-%	CCCCC(CC)COc1ccc(-c2nc(-c3ccc(OC)cc3)nc(-c3ccc(OCC(CC)CCCC)cc3O)n2)c(O)c1 (centres unmarked) [BEMT, bis-ethylhexyloxyphenol methoxyphenyl triazine]
